# Laboratory results as given in PubChem BioAssay (NCI).
#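 Interpolation was linear, between the two tested concentrations surrounding the appropriate level; five concentrations were tested over 48 hours in 96-well plates. Definition used: TGI = concentration required for complete inhibition of growth.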
# Columns and labels:
# Assay in all cases: NCI anticancer screen, dose series, 48 h
# ACHN renal = system: ACHN renal
# HCC-2998 colon = system: HCC-2998 colon
# MDA-MB-231 breast = system: MDA-MB-231 breast
# MDA-N = system: MDA-N
# NCI-H226 lung = system: NCI-H226 lung
# NCI-H460 lung = system: NCI-H460 lung
# NCI-H522 lung = system: NCI-H522 lung
# SF-295 CNS = system: SF-295 CNS
# CCRF-CEM leukemia = system: CCRF-CEM leukemia
Compound,TGI (ACHN renal) [µM],TGI (HCC-2998 colon) [µM],TGI (MDA-MB-231 breast) [µM],TGI (MDA-N) [µM],TGI (NCI-H226 lung) [µM],TGI (NCI-H460 lung) [µM],TGI (NCI-H522 lung) [µM],TGI (SF-295 CNS) [µM],TGI (CCRF-CEM leukemia) [µM]
CC(C)(NC1=NCCO1)c1ccccc1,> 100,> 100,> 100,> 100,> 100,> 100,> 100,> 100,–
CC(C)C(C/C=C1\CC(CO)(COC(=O)CC(C(C)C)C(C)C)OC1=O)C(C)C (stereo not given),22.5,18.7,27.2,18,24.4,21.7,27.6,20.2,36.2
CC1CCC2(CC1)N=C1CCC(C)CC1C1(CCC(C)CC1)N2 (stereo not given),> 100,> 100,> 100,> 100,> 100,> 100,> 100,> 100,> 100
CS(=O)(=O)O.[Ag],16.8,28.8,41,19.9,51.4,49.5,4.52,> 100,6.64
CN(C)CCn1c(=O)c2ccc3c4c(nn3CCN(C)C)c3ccccc3n(c1=O)c24,0.765,0.534,1.96,0.97,2.92,0.417,0.329,0.849,10.9
O=[N+]([O-])c1ccc(Cl)cc1C=NC12CC3CC(CC(C3)C1)C2,> 100,> 100,> 100,> 100,> 100,> 100,> 100,> 100,35.6
C/C(N=Nc1nc2ccccc2o1)=C1/C=CC=CN1O,> 100,24.5,> 100,> 100,> 100,> 100,26.7,10.1,> 100
COC(=O)CCN(CCC(=O)OC)C1CC1,> 100,> 100,> 100,–,> 100,> 100,–,> 100,> 100
O=C1C(N=Nc2ccc(-c3nc4ccccc4[nH]3)cc2)NC(=S)N1c1ccccc1 (stereo not given),> 100,41.7,> 100,> 100,> 100,> 100,> 100,> 100,56
OCCO[P+]1(OCCO)n2c3ccc2C(c2ccccc2)=C2C=CC(=N2)C(c2ccccc2)=c2ccc(n21)=C(c1ccccc1)C1=NC(=C3c2ccccc2)C=C1,1.1,0.327,0.275,0.092,–,1.04,0.2,0.513,0.252
NCCCCNC1(c2cc3ccccc3s2)CCCCC1,23.2,3.1,11.4,3.39,34,7.42,6.19,8.83,5.44
NC(=O)NCCCC(NC(=O)OCCCCCn1ccc(=O)[nH]c1=O)C(=O)O (stereo not given),> 100,> 100,> 100,> 100,> 100,> 100,–,> 100,> 100
NC(=O)CS(=O)CC(N)C(=O)O (stereo not given),> 100,> 100,> 100,> 100,> 100,> 100,> 100,> 100,–
CCOc1cc(C2SCC(=O)N2c2nc3cc4sc(N5C(=O)CSC5c5ccc(O)c(OCC)c5)nc4cc3s2)ccc1O (stereo not given),> 100,> 100,> 100,> 100,> 94.4,> 27.5,> 100,> 100,> 84.2
COc1cc(-c2nc3nc(N4CCN(C)CC4)ccc3[nH]2)c(OC)c2[nH]c(COC(C)=O)nc12,> 100,30.6,63.6,> 100,–,99.3,> 100,> 100,–
O=C(O)C1SCCS1,> 100,> 100,> 100,> 100,> 100,> 100,–,> 100,> 100
CCOC(=O)C(C)c1nc2cc(N3CCN(C)CC3)c(F)cc2[nH]c1=O (stereo not given),> 100,–,> 100,> 100,> 100,> 100,> 100,> 100,> 100
Nc1c(S(=O)(=O)O)cc(Nc2cccc(S(=O)(=O)/C=C/S(=O)(=O)O)c2)c2c1C(=O)c1ccccc1C2=O,> 100,> 100,> 100,> 100,> 100,> 100,> 100,> 100,> 100
CC(C)C1=CC23CCC4C(C)(C(=O)O)CCCC4(C)C2CC1C(C(=O)O)C3C(=O)O (stereo not given),> 100,–,> 100,–,> 100,> 100,> 100,> 100,> 100
OCC(O)C(O)C(O)C(/C=N\Nc1ncnc2ccc(Br)cc12)=N/Nc1ncnc2ccc(Br)cc12 (stereo not given),> 100,–,> 100,> 100,> 100,–,54.9,> 100,–
c1ccc(C2=C(c3ccccc3)P(c3ccccc3)C2)cc1 (stereo not given),> 100,> 100,> 100,> 100,> 100,> 100,> 100,> 100,> 100
CC(C)(C)OC(=O)NCC(=O)N1CCCN(C(=O)CNC(=O)OC(C)(C)C)CC1,> 100,> 100,> 100,> 100,> 100,> 100,> 100,> 100,–
COc1cc(CNc2nc3cc(C(F)(F)F)ccc3nc2C)cc(OC)c1OC,38.1,37.8,29.3,33.2,–,36,48.5,46.5,62.6
